Laboratory results as given in patent publication EP4722207A1, “OXOISOINDOLINYL-SUBSTITUTED TETRAHYDROPYRIMIDINEDIONE DERIVATIVE AND USE THEREOF” (Gluetacs Therapeutics (Shanghai) Co., Ltd., priority 2023, dated 2024).

Assays:
IKZF1 = target: T1, IKZF1 (Homo sapiens, UniProt Q13422+Q96SW2); assay: Western-blot assay, substrate protein degradation in hPBMCs: IKZF1; type: cell-based; settings: compounds at 50 nM and 500 nM, 24 hours
T1 construct: effects of the compounds of the present disclosure on the expression of target proteins in cells; endogenous in cells; host or cells: human PBMCs (hPBMCs)
T1 sequence (Q13422 whole entry): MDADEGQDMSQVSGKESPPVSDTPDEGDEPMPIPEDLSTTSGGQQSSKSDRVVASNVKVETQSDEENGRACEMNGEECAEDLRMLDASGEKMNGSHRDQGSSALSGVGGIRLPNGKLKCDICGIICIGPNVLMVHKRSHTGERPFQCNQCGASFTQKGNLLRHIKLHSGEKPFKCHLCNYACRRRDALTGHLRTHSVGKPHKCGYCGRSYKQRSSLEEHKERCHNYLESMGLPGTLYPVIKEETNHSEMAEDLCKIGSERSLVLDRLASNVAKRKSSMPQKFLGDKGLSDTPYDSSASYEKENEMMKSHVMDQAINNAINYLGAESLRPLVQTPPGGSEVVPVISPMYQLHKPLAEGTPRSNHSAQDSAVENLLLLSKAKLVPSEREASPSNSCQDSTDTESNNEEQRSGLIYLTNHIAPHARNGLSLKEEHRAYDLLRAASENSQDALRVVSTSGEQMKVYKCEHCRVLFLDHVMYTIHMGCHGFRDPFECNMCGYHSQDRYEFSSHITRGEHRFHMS
T1 sequence (Q96SW2 whole entry): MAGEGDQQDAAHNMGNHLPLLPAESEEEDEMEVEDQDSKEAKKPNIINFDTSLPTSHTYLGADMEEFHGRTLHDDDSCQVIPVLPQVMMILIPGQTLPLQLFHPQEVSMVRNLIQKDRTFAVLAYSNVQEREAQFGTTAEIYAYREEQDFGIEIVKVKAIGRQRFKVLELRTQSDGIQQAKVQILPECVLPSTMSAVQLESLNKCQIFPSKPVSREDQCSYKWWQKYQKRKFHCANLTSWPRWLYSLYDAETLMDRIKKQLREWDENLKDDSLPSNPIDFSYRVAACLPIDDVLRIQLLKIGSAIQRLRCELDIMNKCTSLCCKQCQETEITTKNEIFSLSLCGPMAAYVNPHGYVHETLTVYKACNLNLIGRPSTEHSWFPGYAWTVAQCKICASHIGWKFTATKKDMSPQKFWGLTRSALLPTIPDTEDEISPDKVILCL
T1 sequence (Q16531 whole entry partner): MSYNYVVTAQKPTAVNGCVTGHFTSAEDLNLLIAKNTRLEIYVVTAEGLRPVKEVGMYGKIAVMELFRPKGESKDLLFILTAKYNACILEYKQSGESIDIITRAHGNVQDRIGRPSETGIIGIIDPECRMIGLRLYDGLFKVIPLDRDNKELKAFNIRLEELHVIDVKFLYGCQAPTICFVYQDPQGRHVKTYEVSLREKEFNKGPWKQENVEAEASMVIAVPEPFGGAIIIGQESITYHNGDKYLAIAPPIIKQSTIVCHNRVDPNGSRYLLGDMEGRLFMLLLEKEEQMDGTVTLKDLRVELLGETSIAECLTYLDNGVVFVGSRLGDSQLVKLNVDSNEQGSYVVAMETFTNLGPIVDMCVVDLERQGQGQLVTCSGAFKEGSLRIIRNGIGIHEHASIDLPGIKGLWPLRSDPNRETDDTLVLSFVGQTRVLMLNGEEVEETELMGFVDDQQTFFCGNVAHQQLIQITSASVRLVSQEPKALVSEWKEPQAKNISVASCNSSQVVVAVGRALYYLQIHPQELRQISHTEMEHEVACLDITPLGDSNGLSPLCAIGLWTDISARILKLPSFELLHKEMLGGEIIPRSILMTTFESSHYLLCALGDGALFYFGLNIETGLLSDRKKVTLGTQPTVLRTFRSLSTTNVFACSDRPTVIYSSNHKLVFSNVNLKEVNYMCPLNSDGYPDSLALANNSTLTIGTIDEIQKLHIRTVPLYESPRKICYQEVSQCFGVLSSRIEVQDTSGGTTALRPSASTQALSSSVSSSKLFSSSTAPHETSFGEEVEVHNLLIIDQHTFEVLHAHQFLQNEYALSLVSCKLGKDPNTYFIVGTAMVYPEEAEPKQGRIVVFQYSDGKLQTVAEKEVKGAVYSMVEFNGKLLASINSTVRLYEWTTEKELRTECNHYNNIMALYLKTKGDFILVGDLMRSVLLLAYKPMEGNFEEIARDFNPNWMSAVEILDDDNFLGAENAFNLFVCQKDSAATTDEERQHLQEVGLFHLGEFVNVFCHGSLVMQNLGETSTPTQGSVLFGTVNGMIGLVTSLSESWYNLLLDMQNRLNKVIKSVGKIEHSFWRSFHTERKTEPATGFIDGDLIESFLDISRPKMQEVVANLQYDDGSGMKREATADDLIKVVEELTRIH

MM.1S = assay: Cell viability assay (CellTiter-Meiluncell Luminescent), tumor cell proliferation, MM.1S; settings: Homo sapiens, MM1.S, 96 h, read-out: inhibitory activity (IC50, nM) against tumor cells proliferation, MM.1S
IKZF2 = target: T2, IKZF2 (Homo sapiens, UniProt Q96SW2+Q9UKS7); assay: Western-blot assay, substrate protein degradation in hPBMCs: IKZF2; type: cell-based; settings: compounds at 50 nM and 500 nM, 24 hours
T2 construct: effects of the compounds of the present disclosure on the expression of target proteins in cells; endogenous in cells; host or cells: human PBMCs (hPBMCs)
T2 sequence (Q9UKS7 whole entry): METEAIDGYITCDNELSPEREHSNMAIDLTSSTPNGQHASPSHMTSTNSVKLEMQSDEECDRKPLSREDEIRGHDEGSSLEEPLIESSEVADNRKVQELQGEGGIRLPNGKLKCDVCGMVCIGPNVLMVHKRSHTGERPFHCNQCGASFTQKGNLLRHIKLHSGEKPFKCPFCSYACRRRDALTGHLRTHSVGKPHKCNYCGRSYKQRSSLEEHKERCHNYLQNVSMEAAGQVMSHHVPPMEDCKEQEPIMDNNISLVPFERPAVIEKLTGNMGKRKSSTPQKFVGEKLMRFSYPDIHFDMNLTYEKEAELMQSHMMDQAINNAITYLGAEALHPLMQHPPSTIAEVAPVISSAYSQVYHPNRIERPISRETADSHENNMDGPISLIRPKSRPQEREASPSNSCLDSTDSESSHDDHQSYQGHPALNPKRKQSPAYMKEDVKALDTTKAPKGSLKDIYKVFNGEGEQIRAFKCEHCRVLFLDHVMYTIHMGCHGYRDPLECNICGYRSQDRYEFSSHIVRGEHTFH
T2 sequence (Q96SW2 whole entry): as the sequence (Q96SW2 whole entry) above
T2 sequence (Q16531 whole entry partner): as the sequence (Q16531 whole entry partner) above

CK1α = target: T3, CK1α (Homo sapiens, UniProt P48729+Q96SW2); assay: Western-blot assay, substrate protein degradation in hPBMCs: CK1α; type: cell-based; settings: compounds at 50 nM and 500 nM, 24 hours
T3 construct: effects of the compounds of the present disclosure on the expression of target proteins in cells; endogenous in cells; host or cells: human PBMCs (hPBMCs)
T3 sequence (P48729 whole entry): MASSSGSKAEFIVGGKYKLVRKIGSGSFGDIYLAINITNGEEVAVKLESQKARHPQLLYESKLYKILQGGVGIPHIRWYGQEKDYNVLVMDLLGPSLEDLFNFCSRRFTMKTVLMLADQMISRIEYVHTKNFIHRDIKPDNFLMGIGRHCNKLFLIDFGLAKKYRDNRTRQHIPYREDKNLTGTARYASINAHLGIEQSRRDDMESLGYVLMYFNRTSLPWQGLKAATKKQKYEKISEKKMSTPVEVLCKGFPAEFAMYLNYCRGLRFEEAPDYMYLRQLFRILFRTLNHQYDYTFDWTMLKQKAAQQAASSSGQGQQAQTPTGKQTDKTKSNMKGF
T3 sequence (Q96SW2 whole entry): as the sequence (Q96SW2 whole entry) above
T3 sequence (Q16531 whole entry partner): as the sequence (Q16531 whole entry partner) above

Jurkat = assay: Cell viability assay (CellTiter-Meiluncell Luminescent), tumor cell proliferation, Jurkat; settings: Homo sapiens, 96 h, read-out: inhibitory activity (IC50, nM) against tumor cells proliferation, Jurkat
Procedure: (§1) On the following day, the test compounds of the present disclosure were subjected to serial dilution. […] Subsequently, 0.5 µL of the test compound dilution was transferred into the 96-well plate containing the cells, with each well containing 100 µL of cell culture medium. […] Into the 96-well plate, the diluted test compounds and corresponding detection reagents were added, resulting in final test compound concentrations of 500 nM and 10 nM, respectively.
(§2) After the cells were treated with the compounds of the present disclosure for a specified period, the cell viability assay reagent was added to the culture medium according to the kit's instructions to determine cell viability. […] All controls were treated using the same procedure as the compounds of the present disclosure. The growth inhibition curves for the compounds of the present disclosure were plotted using Prism GraphPad software, and the IC50 values were calculated therefrom.

IKZF3 = target: T4, IKZF3 (Homo sapiens, UniProt Q96SW2+Q9UKT9); assay: Western-blot assay, substrate protein degradation in hPBMCs: IKZF3; type: cell-based; settings: compounds at 50 nM and 500 nM, 24 hours
T4 construct: effects of the compounds of the present disclosure on the expression of target proteins in cells; endogenous in cells; host or cells: human PBMCs (hPBMCs)
T4 sequence (Q9UKT9 whole entry): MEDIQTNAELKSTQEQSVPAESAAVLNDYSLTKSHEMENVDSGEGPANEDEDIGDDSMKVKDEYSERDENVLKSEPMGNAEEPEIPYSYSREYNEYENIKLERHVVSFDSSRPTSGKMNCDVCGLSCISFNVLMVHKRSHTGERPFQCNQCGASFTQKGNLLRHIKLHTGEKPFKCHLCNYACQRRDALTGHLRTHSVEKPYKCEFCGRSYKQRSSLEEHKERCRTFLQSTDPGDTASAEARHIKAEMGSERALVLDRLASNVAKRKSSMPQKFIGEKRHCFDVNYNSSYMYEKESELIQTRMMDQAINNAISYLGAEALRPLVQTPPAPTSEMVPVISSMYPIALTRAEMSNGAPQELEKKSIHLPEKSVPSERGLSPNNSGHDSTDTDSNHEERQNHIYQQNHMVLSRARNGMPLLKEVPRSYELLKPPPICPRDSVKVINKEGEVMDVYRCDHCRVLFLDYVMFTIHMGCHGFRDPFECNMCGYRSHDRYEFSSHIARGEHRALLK
T4 sequence (Q96SW2 whole entry): as the sequence (Q96SW2 whole entry) above
T4 sequence (Q16531 whole entry partner): as the sequence (Q16531 whole entry partner) above

WEE1 = target: T5, WEE1 (Homo sapiens, UniProt P30291+Q96SW2); assay: Western-blot assay, substrate protein degradation in hPBMCs: WEE1; type: cell-based; settings: compounds at 50 nM and 500 nM, 24 hours
T5 construct: effects of the compounds of the present disclosure on the expression of target proteins in cells; endogenous in cells; host or cells: human PBMCs (hPBMCs)
T5 sequence (P30291 whole entry): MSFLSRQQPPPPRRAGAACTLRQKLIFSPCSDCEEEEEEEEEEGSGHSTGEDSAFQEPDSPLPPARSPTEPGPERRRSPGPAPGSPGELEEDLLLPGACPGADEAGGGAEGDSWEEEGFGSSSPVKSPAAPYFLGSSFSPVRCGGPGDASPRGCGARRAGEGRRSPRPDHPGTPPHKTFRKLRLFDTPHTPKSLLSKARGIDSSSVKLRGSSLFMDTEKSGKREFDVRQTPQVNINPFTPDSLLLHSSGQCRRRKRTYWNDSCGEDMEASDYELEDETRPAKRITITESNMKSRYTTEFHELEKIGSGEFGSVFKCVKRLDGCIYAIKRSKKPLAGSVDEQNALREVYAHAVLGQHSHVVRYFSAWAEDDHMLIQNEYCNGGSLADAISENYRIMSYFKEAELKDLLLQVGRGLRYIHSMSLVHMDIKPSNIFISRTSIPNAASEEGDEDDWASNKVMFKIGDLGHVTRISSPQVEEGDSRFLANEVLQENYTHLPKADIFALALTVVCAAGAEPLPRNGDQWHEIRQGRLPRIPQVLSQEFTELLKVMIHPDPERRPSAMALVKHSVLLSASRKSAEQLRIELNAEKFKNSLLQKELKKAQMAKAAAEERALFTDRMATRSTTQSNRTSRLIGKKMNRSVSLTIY
T5 sequence (Q96SW2 whole entry): as the sequence (Q96SW2 whole entry) above
T5 sequence (Q16531 whole entry partner): as the sequence (Q16531 whole entry partner) above

GSPT1 = target: T6, GSPT1 (Homo sapiens, UniProt P15170+Q96SW2); assay: Western-blot assay, substrate protein degradation in hPBMCs: GSPT1; type: cell-based; settings: compounds at 50 nM and 500 nM, 24 hours
T6 construct: effects of the compounds of the present disclosure on the expression of target proteins in cells; endogenous in cells; host or cells: human PBMCs (hPBMCs)

MGC803 = assay: Cell viability assay (CellTiter-Meiluncell Luminescent), tumor cell proliferation, MGC803; settings: Homo sapiens, MGC-803, 96 h, read-out: inhibitory activity (IC50, nM) against tumor cells proliferation, MGC803
Procedure: as §1, §2

| Structure (SMILES) | IKZF1 substrate protein remaining % (IKZF1) | IC50 (MM.1S) [nM] | IKZF2 substrate protein remaining % (IKZF2) | CK1α substrate protein remaining % (CK1α) | IC50 (Jurkat) [nM] | IKZF3 substrate protein remaining % (IKZF3) | WEE1 substrate protein remaining % (WEE1) | GSPT1 substrate protein remaining % (GSPT1) | IC50 (MGC803) [nM] |
| --- | --- | --- | --- | --- | --- | --- | --- | --- | --- |
| O=C1CCN(N2Cc3cc(CN4CCN(C(c5ccccc5)c5ccccc5)CC4)ccc3C2=O)C(=O)N1 [GT-04889, 1-(5-((4-benzhydrylpiperazin-1-yl)methyl)-1-oxoisoindolin-2-yl)dihydropyrimidine-2,4(1H,3H)-dione] | A ("A" is defined as 0% ≤ substrate protein remaining % ≤ 80%) | 100 to 300 | A ("A" is defined as 0% ≤ substrate protein remaining % ≤ 80%) | B ("B" is defined as 80%< substrate protein remaining %≤ 100%) | 300 to 500 | A ("A" is defined as 0% ≤ substrate protein remaining % ≤ 80%) | A ("A" is defined as 0% ≤ substrate protein remaining % ≤ 80%) | A ("A" is defined as 0% ≤ substrate protein remaining % ≤ 80%) | 300 to 500 |
| O=C1CCN(N2Cc3cc(CN4CCC(Nc5ccccc5-c5ccc(Cl)cc5)CC4)ccc3C2=O)C(=O)N1 [GT-04943, 1-(5-((4-((4'-chloro-[1,1'-biphenyl]-2-yl)amino)piperidin-1-yl)methyl)-1-oxoisoindolin-2-yl)dihydropyrimidine-2,4(1H,3H)-dione] | A ("A" is defined as 0% ≤ substrate protein remaining % ≤ 80%) | 10 to 50 | A ("A" is defined as 0% ≤ substrate protein remaining % ≤ 80%) | B ("B" is defined as 80%< substrate protein remaining %≤ 100%) | 100 to 300 | A ("A" is defined as 0% ≤ substrate protein remaining % ≤ 80%) | A ("A" is defined as 0% ≤ substrate protein remaining % ≤ 80%) | A ("A" is defined as 0% ≤ substrate protein remaining % ≤ 80%) | 100 to 300 |
